According to article PMC12057341, “In vitro pharmacokinetic/pharmacodynamic modeling of the effect of mucin on polymyxin B activity against Acinetobacter baumannii” (Antimicrobial Agents and Chemotherapy, 2025):
Where a SMILES comes first, the peptide text is derived from it. Bridges are numbered along the chain shown (N, C = ends). [ ]: non-standard residue; d: D form. The star is where a group is joined. X1 = CC[C@H](C)CCCCC(=O)*; Dab = NCC[C@H](N)C(=O)O

Test system: mucin from the porcine stomach
Assay: PMB binding to mucin by ultracentrifugation in CAMHB with 1% mucin
Type: in vitro ADME
Set-up: Unbound conc.: unit not given here
Description: Mucin from the porcine stomach was obtained from Sigma-Aldrich (Merck KGaA, Saint-Quentin Fallavier, France) and solubilized in NaCl 0.9% to obtain a solution at 20% (pH adjusted to 7). The solution was autoclaved at 110°C for 15 minutes.
PMB solutions at concentrations ranging from 0.5 to 10,000 mg/L in CAMHB with 1% mucin were incubated for 1 h at 35°C, then ultracentrifuged at ~290 000 g for 5 h at room temperature (Beckman Optima LE-80K, rotor: Beckman Coulter 70.1 Ti), according to a method previously described ([35]). Unbound PMB concentrations in the supernates were determined by LC-MS/MS (method adapted from a previous publication ([36]) and detailed in Supplemental material) and used to determine the unbound fraction (fu) of PMB. Potential PMB sedimentation ([37]) during experimentation was determined from PMB solutions prepared in mucin-free CAMHB and subjected to the same ultracentrifugation conditions as previously described, and then used to correct for unbound PMB concentrations.
The same procedure was performed with a nonautoclaved mucin solution. Experiments were done in triplicate.
The relationship between fu and PMB total concentrations was modeled according to a sigmoidal Emax function (equation 1):
(1) fu=E0+ Imax × C^ε/IC50ε+ C^ε,
where E0 represents the minimum fu, Imax the maximum increase in fu, IC50 (mg/L) corresponds to PMB total concentration needed to reach 50% of Imax, C (mg/L) to the PMB total concentration, and ε to the Hill coefficient.
Parameter estimation was performed using nonlinear regression with iteratively reweighted least squares (R, version 4.1.3 – Package: robustbase, version 0.99–0). Two sets of parameters were estimated, one for the data generated with autoclaved mucin, another for the data generated without autoclave. The two sets of parameters were compared using ANOVA testing.

[1] = equation 1 fit, all data pooled, value (variance) in Table 1, CAMHB + 1% mucin, ultracentrifugation, LC-MS/MS, triplicate
[2] = equation 1 fit, autoclaved mucin data
[3] = equation 1 fit, non-autoclaved mucin data
[4] = simulated with equation 1, autoclaved mucin parameters, total conc. 0.5, CAMHB + 1% mucin
[5] = simulated with equation 1, autoclaved mucin parameters, total conc. 1, CAMHB + 1% mucin
[6] = simulated with equation 1, autoclaved mucin parameters, total conc. 2, CAMHB + 1% mucin
[7] = simulated with equation 1, autoclaved mucin parameters, total conc. 4, CAMHB + 1% mucin
[8] = simulated with equation 1, autoclaved mucin parameters, total conc. 8, CAMHB + 1% mucin
[9] = simulated with equation 1, autoclaved mucin parameters, total conc. 10, CAMHB + 1% mucin
[10] = simulated with equation 1, autoclaved mucin parameters, total conc. 50, CAMHB + 1% mucin
[11] = simulated with equation 1, autoclaved mucin parameters, total conc. 100, CAMHB + 1% mucin
[12] = simulated with equation 1, autoclaved mucin parameters, total conc. 500, CAMHB + 1% mucin
[13] = simulated with equation 1, autoclaved mucin parameters, total conc. 1000, CAMHB + 1% mucin
[14] = simulated with equation 1, autoclaved mucin parameters, total conc. 5000, CAMHB + 1% mucin
[15] = simulated with equation 1, autoclaved mucin parameters, total conc. 10000, CAMHB + 1% mucin
[16] = simulated with equation 1, non-autoclaved mucin parameters, total conc. 0.5, CAMHB + 1% mucin
[17] = simulated with equation 1, non-autoclaved mucin parameters, total conc. 1, CAMHB + 1% mucin
[18] = simulated with equation 1, non-autoclaved mucin parameters, total conc. 2, CAMHB + 1% mucin

SMILES: CC[C@H](C)CCCCC(=O)N[C@@H](CCN)C(=O)N[C@H](C(=O)N[C@@H](CCN)C(=O)N[C@H]1CCNC(=O)[C@H]([C@@H](C)O)NC(=O)[C@H](CCN)NC(=O)[C@H](CCN)NC(=O)[C@H](CC(C)C)NC(=O)[C@@H](Cc2ccccc2)NC(=O)[C@H](CCN)NC1=O)[C@@H](C)O [PMB, polymyxin B] (X1-[Dab]T[Dab][Dab][Dab][dF]L[Dab][Dab]T; lactam 4-C)
- PMB bound to mucin (PMB concentrations encountered in clinical practice, up to 10 mg/L, 1% mucin): approximately 95%
- PMB unbound fraction (fu), maximum (PMB total concentration of 200 mg/L (b7) or higher than 200 mg/L, CAMHB + 1% mucin, ultracentrifugation, LC-MS/MS): 60%
- PMB unbound fraction (fu) (PMB total concentrations up to 20 mg/L, CAMHB + 1% mucin, 1 h 35°C, ultracentrifugation ~290 000 g 5 h, LC-MS/MS, triplicate): 6%
- IC50, PMB total concentration needed to reach 50% of the maximum fu [1]: 114.37 (196) mg/L
- Imax, maximum PMB fu increase [1]: 0.56 (0.0009)
- ε, Hill coefficient of fu vs total concentration [1]: 1.97 (0.252)
- IC50 of fu model [2]: 104.01 µg/mL
- Imax, maximum fu increase [2]: 0.56
- E0, minimum fu (equation 1 fit, autoclaved mucin data, CAMHB + 1% mucin, ultracentrifugation): 0.067
- IC50 of fu model [3]: 126.95 µg/mL
- Imax, maximum fu increase [3]: 0.57
- E0, minimum fu (equation 1 fit, non-autoclaved mucin data, CAMHB + 1% mucin, ultracentrifugation): 0.056
- E0, minimum PMB fu value (sigmoidal Emax fit of fu vs PMB total concentration (equation 1), all data pooled, value (variance) in Table 1, CAMHB + 1% mucin, 1 h 35°C, ultracentrifugation ~290 000 g 5 h room temperature, LC-MS/MS, triplicate): 0.061 (0.0004)
- Unbound conc. [4]: 0.03
- fu (95% CI) [4]: 6.7 (0.1 - 13.2) %
- Unbound conc. [5]: 0.07
- fu (95% CI) [5]: 6.7 (0.1 - 13.2) %
- Unbound conc. [6]: 0.13
- fu (95% CI) [6]: 6.7 (0.1 - 13.2) %
- Unbound conc. [7]: 0.27
- fu (95% CI) [7]: 6.7 (0.3 - 13.2) %
- Unbound conc. [8]: 0.55
- fu (95% CI) [8]: 6.9 (0.7 - 13.0) %
- Unbound conc. [9]: 0.70
- fu (95% CI) [9]: 7.0 (1.0 - 13.0) %
- Unbound conc. [10]: 7.96
- fu (95% CI) [10]: 15.9 (7.7 – 24.2) %
- Unbound conc. [11]: 33.4
- fu (95% CI) [11]: 33.4 (24.9 – 41.9) %
- Unbound conc. [12]: 304
- fu (95% CI) [12]: 60.8 (55.0 - 66.6) %
- Unbound conc. [13]: 621
- fu (95% CI) [13]: 62.1 (57.2 – 67.1) %
- Unbound conc. [14]: 3120
- fu (95% CI) [14]: 62.5 (57.1 – 67.9) %
- Unbound conc. [15]: 6250
- fu (95% CI) [15]: 62.5 (57.1 – 68.0) %
- Unbound conc. [16]: 0.03
- fu (95% CI) [16]: 5.6 (2.1 - 9.1) %
- Unbound conc. [17]: 0.06
- fu (95% CI) [17]: 5.6 (2.1 - 9.1) %
- Unbound conc. [18]: 0.11
- fu (95% CI) [18]: 5.6 (2.2 - 9.1) %
- Unbound conc. (simulated with equation 1, non-autoclaved mucin parameters, total conc. 4, CAMHB + 1% mucin): 0.23
